Assay results: article PMC11939470, “The Cyclic Antimicrobial Peptide C-LR18 Has Enhanced Antibacterial Activity, Improved Stability, and a Longer Half-Life Compared to the Original Peptide” (Antibiotics, 2025)

Legend:
[1] = cited from earlier work
Source text: An in vivo toxicity test is an essential step in the safety evaluation of exogenous drugs. The purpose is to observe the systemic toxicity of drugs on animals, including whether there are adverse physiological reactions, pathological changes in organs and tissues of the whole body, and the mortality of animals. Therefore, before the treatment of C-LR18 on E. coli-infected mice, we tested the acute toxicity of C-LR18 in mice.

E. coli ATCC25922 = experiment: Membrane permeability assay (propidium iodide uptake, flow cytometry); type: cell-based; conditions: melittin 4 μM, positive control, 30 min 37 °C
Procedure: The effect of C-LR18 on bacterial membrane permeability was measured using the propidium iodide (PI) uptake assay described in [22]. E. coli ATCC25922 in logarithmic growth phase were adjusted to 1 × 10^6 CFU/mL. C-LR18 was added with the final concentration of 4 μM. The mixtures were incubated for 30 min at 37 °C. […] After eliminating unbound dye by washing twice with PBS, the bacterial cells were detected using a flow cytometer (Ex = 535 nm/Em = 615 nm). The results were analyzed using FlowJo 6.2.1 and GraphPad Prism 5 software.

E. coli Y1 [2] = experiment: Therapeutic experiment, survival of E. coli-infected mice; type: in vivo, KM mice; conditions: polymyxin B 5.0 mg/kg ip 1 h after ip E. coli Y1 challenge, 10 mice per group
Procedure: The mice (female, 18–21 g) were randomly divided into 6 groups, with PBS dilution as the control group. A total of 1–5 groups were injected intraperitoneally with 0.5 mL of E. coli solution containing […] CFU/mL, respectively. After inoculation, the mice were observed continuously for 5 days, and the mortality rate was recorded. The minimum dose (LD 100) at which all mice die within 5 days was used as the optimal dose for the bacterial attack in this experiment.
In order to further evaluate the therapeutic potential of antimicrobial peptide C-LR18, a mouse model infected with E. coli was constructed in this study. The Km mice (female, 18–21 g) were maintained at constant room temperature [(25 ± 2) °C] with free access to food and water for 48 h. […] A total of 0.5 mL of E. coli Y1 suspension (10^9 CFU/m L) was intraperitoneally injected into each group of mice. One hour after challenge, different doses of C-LR18 (2.5 mg/kg, 5 mg/kg, and 7.5 mg/kg) and polymyxin B (5 mg/kg) were intraperitoneally injected into mice. The group injected with the same dose of physiological water was the control group.

E. coli Y1 [3] = experiment: Bacterial load in liver and spleen of mice; type: in vivo; conditions: polymyxin B 1 mg/kg, positive control, one mouse every 24 h
Procedure: One hour after the mice were intraperitoneally injected with 0.5 mL of E. coli Y1 suspension (10^9 CFU/mL), C-LR18 was injected into the mice at a dose of 7.5 mg/kg through the tail vein. The normal saline group was used as negative control, and the polymyxin B group (1 mg/kg) was used as positive control. After that, one mouse was taken every 24 h, sacrificed via cervical dislocation, and the liver and spleen were removed, weighed, and added to PBS buffer for grinding at 3000 r/min for 2 min. The abrasive solution was diluted with sterile PBS (1:10,000), and 0.1 mL diluent was evenly coated in solid MH medium and cultured at 37 °C overnight. Colony counting was performed on the samples, and the bacterial colonization amount in liver and spleen was calculated.

Molecule	LD50 [1]	PI fluorescence of treated cells (PI-A+) (E. coli ATCC25922)	survival rate of mice (E. coli Y1 [2])	bacterial colonization in liver and spleen (E. coli Y1 [3])
CC[C@H](C)[C@H](NC(=O)CN)C(=O)NCC(=O)N[C@@H](C)C(=O)N[C@H](C(=O)N[C@@H](CC(C)C)C(=O)N[C@@H](CCCCN)C(=O)N[C@H](C(=O)N[C@@H](CC(C)C)C(=O)N[C@H](C(=O)N[C@H](C(=O)NCC(=O)N[C@@H](CC(C)C)C(=O)N1CCC[C@H]1C(=O)N[C@@H](C)C(=O)N[C@@H](CC(C)C)C(=O)N[C@H](C(=O)N[C@@H](CO)C(=O)N[C@@H](Cc1c[nH]c2ccccc12)C(=O)N[C@H](C(=O)N[C@@H](CCCCN)C(=O)N[C@@H](CCCNC(=N)N)C(=O)N[C@@H](CCCCN)C(=O)N[C@@H](CCCNC(=N)N)C(=O)N[C@@H](CCC(N)=O)C(=O)N[C@@H](CCC(N)=O)C(N)=O)[C@@H](C)CC)[C@@H](C)CC)[C@@H](C)O)[C@@H](C)O)C(C)C)C(C)C [Melittin, reference compound]	4.98 mg/kg	83.6%	–	–
polymyxin B [reference compound]	6.52 mg/kg	–	50%	significantly less than that in the negative control group
